Source: patent publication US6765104B1, “Transition metal complexes of n, n',n″trialkyl-cis-1,3,5-triaminocyclohexane and related compositions and methods of synthesis and use” (The United States of America as represented by the …, priority 1999, dated 2004)

Experiments:
[1] = Hydrolysis of bis(p-nitrophenyl)phosphate, initial rate of 4-nitrophenolate formation at 400 nm; type: biochemical
Protocol: The copper (II) complex of N,N′,N″-trimethyl-cis,cis-1,3,5-triaminocyclohexane prepared in accordance with the method of Example 2 (1 mM) was combined with bis(4-nitrophenyl)phosphate (1 mM) and HEPES (50 mM), pH 7.24, at 50° C. and incubated, while monitoring for an increase in absorbance at 400 nm. An aliquot was withdrawn and analyzed by reverse phase HPLC, eluted with a linear gradient of 100% 50 mM acetic acid/50 mM triethylamine to 100% methanol over thirty minutes. The signals observed in the reaction mixture corresponded to the predicted hydrolytic products, p-nitrophenyl phosphate (10.5 min) and 4-nitrophenolate (16.8 min), as well as unreacted bis(p-nitrophenyl)phosphate (20.2 min). Products were confirmed by co-injection of standards.
(§1) Measurements were performed as previously described (Deal et al. (Inorg. Chem. 1996), supra). Briefly, the initial rate of formation of 4-nitrophenolate was monitored spectrophotometrically at 400 nm for 1 hr or for less than 10% conversion of bis(p-nitrophenyl)phosphate to products. Reactions were run in sets of four, triplicate reaction mixtures and one reference. Spontaneous hydrolysis of the phosphate diester was corrected in the reference, which was identical to the reaction mixture, except lacking metal complex. The concentration of 4-nitrophenolate was calculated from the absorbance using an extinction coefficient of 18700 L mol^−1 cm^−1. The initial rate was obtained from the slope of the plots of 4-nitrophenolate concentration vs. time.

[2] = Hydrolysis of ethyl (p-nitrophenyl)phosphate; type: biochemical
Protocol: as §1
Bis(p-nitrophenyl)phosphate was hydrolyzed more rapidly than ethyl (p-nitrophenyl)phosphate, which was hydrolyzed more rapidly than p-nitrophenyl phosphate. Thus, the rate of metal-promoted hydrolysis is dependent on the electron-withdrawing ability of the leaving group. Leaving groups which are strongly electron-withdrawing are considered activated and hydrolyze more rapidly. […]

[3] = test system: Chinese hamster V79 cells; test: Cytotoxicity by macroscopic colony formation, surviving fraction of V79 cells; type: cell-based; settings: for treated cells that survive: concentration of 3 mM, FIG. 1
Protocol: Chinese hamster V79 cells were maintained in a 5% CO2/95% air humidified atmosphere at 37° C. in nutrient mixture F12 with 10% heat-inactivated fetal bovine serum and antibiotics. One day before each experiment, 5×10^5 V79 cells were plated into 100 mm petri dishes and incubated overnight The cells were exposed to the copper complex of N,N′,N″-triethyl-cis,cis-1,3,5-triaminocyclohexane or N,N,N″-triethyl-cis,cis-1,3,5-triaminocyclohexane or the corresponding ligand of N,N′,N″-triethyl-cis,cis-1,3,5-triaminocyclohexane or N,N′,N″-triethyl-cis,cis-1,3,5-triaminocyclohexane alone for 1 or 24 hours, after which they were rinsed, trypsinized, and plated for macroscopic colony formation. After incubating for 7 days, colonies were fixed with methanol/acetic acid and stained with crystal violet. Colonies larger than 50 cells were counted.

[4] = test system: hypoxic MCF-7 human mammary carcinoma cells; test: Cytotoxicity to hypoxic MCF-7 cells, surviving fraction; type: cell-based; settings: 1500 μM, 1 hour, FIG. 3
Protocol: (§2) MCF-7 human mammary carcinoma cells were maintained in a 5% CO2/95% air humidified atmosphere at 37° C. in RPMI 1640 with 10% heat-inactivated fetal bovine serum and antibiotics. For hypoxia experiments, 3×10^5 MCF-7 cells were plated into glass flasks, and incubated overnight The flasks were sealed with a rubber stopper, and two hypodermic needles were inserted to allow for gassing. Flasks were gassed with a 95% nitrogen/5% carbon dioxide mixture for one hour. The copper complex was added to the cells after they were hypoxic through a glass sidearm connected to the flask by a ground glass connection. Cells were incubated for 1 hour for experiments to assess the toxicity of the copper complex, then plated and incubated as described previously in Example 4.

[5] = test system: hypoxic MCF-7 human mammary carcinoma cells; test: Hypoxic irradiation with the copper complex, surviving fraction of MCF-7 cells; type: cell-based; settings: 15 minutes with complex, then irradiated, FIG. 4
Protocol: as §2, with “4. For hypoxic irradiation experiments, cells were incubated with the copper complex for 15 minutes, then irradiated, plated and incubated as described previously in Example 4. Cells were irradiated with an Eldorado 8 Cobalt-60 teletherapy machine (Theratronics International Ltd., Kanata, Ontario, Canada). The dose rate varied form 200 to 150 cGy/min during the course of this study. Decay corrections were done monthly, and full electron equilibrium was ensured for all irradiations.” for “4.”

[6] = Deal et al. (Inorg. Chem. 1996); cited from earlier work

copper complex of N,N′,N″-trimethyl-cis,cis-1,3,5-triaminocyclohexane
rate of phosphate diester hydrolysis relative to the copper (II) triazacyclononane system [1]: approximately 6.5 times faster | pKa from plot of log initial rate versus pH (Dixon method) ([1]; consistent with deprotonation of a copper(II) coordinated water molecule): 7.3 | maximal velocity (Vmax) ([1]; modified Lineweaver-Burke function): 9.3e-08 s⁻¹ | Km ([1]; modified Lineweaver-Burke function, read-out: Michaelis Constant (Km)): 4.4 mM | rate acceleration compared to the copper (II) triazacyclononane system [2]: 6.7 | concentration producing approximately the same effect, cells treated for 1 hr ([3]; 1 hr, FIG. 2): 4000 µM | concentration producing approximately the same effect, cells treated for 24 hrs ([3]; 24 hrs, FIG. 2): 1000 µM | treated cells that survive [3]: 3% | treated hypoxic cells destroyed [4]: approximately 99% | radiation alone needed for the same effect as radiation plus the copper complex [5]: Approximately twice

copper complex of N,N′,N″-triethyl-cis,cis-1,3,5-triaminocyclohexane
treated cells that survive [3]: 15%

O=P(O)(O)OP(=O)(O)O [pyrophosphate, reference compound]
inhibition of the hydrolysis reaction ([1]; 0.5 equivalents relative to the copper complex): completely inhibited

copper (II) triazacyclononane [copper (II) triazacyclononane system]
rate of phosphate diester hydrolysis [6]: 1.3e-06 s⁻¹
